{
  "source": "patent US11841367B2",
  "about": "“TLR agonist-enhanced in vitro assay of cell mediated immune responsiveness” (Cellestis Limited, priority 2011, dated 2023)",
  "format_in_all_cases": "cell-based, human",
  "key": {"whole blood [1]": {"tested_on": "whole blood", "experiment": "Background IFN-γ responses to R848 alone in QFT-Nil tubes (whole blood, ELISA)", "details": "for IFNγ concentration of the plasma, background response, Mean: QFT-Nil tube, 1 ml whole blood, 37° C., 16-24 hours"}, "whole blood [2]": {"tested_on": "whole blood", "experiment": "Clinical study: QFT-TB response with added R848 in TB patients, TB suspects and household contacts", "details": "for effect on QFT-TB response: subjects positive to QFT-TB test alone"}, "whole blood [3]": {"tested_on": "whole blood", "experiment": "IFN-γ responses of whole blood in QFT-CMV tubes plus R848", "details": "for IFNγ response to antigen+R848 minus background to R848 alone, Mean: 16-24 hours"}, "whole blood [4]": {"tested_on": "whole blood", "experiment": "IFN-γ responses of whole blood in QFT-Nil tubes with EBV EBNA1 pepMix plus R848", "details": "for IFNγ response to antigen+R848 minus background to R848 alone, Mean: 16-24 hours"}},
  "data": [
    {"compound": "CCOCc1nc2c(N)nc3ccccc3c2n1CC(C)(C)O", "note": "[R848]", "values": [
      {"measurement": "background responses to R848 alone", "setting": "whole blood [1]; 0.1 μg/ml R848, QFT-Nil tubes", "result": "significant background responses seen in many donors"},
      {"measurement": "IFNγ concentration of the plasma, background response, Mean", "setting": "whole blood [1]; R848 0.01 μg/ml alone", "result": "−0.009677 1 U/ml"},
      {"measurement": "IFNγ concentration of the plasma, background response, Mean", "setting": "whole blood [1]; R848 0.02 μg/ml alone", "result": "0.0100 1 U/ml"},
      {"measurement": "IFNγ concentration of the plasma, background response, Mean", "setting": "whole blood [1]; R848 0.025 μg/ml alone", "result": "0.0330 1 U/ml"},
      {"measurement": "IFNγ concentration of the plasma, background response, Mean", "setting": "whole blood [1]; R848 0.03 μg/ml alone", "result": "0.0925 1 U/ml"},
      {"measurement": "IFNγ concentration of the plasma, background response, Mean", "setting": "whole blood [1]; R848 0.04 μg/ml alone", "result": "0.5144 1 U/ml"},
      {"measurement": "IFNγ concentration of the plasma, background response, Mean", "setting": "whole blood [1]; R848 0.05 μg/ml alone", "result": "1.084 1 U/ml"},
      {"measurement": "IFNγ concentration of the plasma, background response, Mean", "setting": "whole blood [1]; R848 0.1 μg/ml alone", "result": "21.58 1 U/ml"},
      {"measurement": "background responses to R848 alone", "setting": "whole blood [1]; below 0.05 μg/ml R848, QFT-Nil tubes", "result": "not significant"},
      {"measurement": "effect on QFT-TB response", "setting": "whole blood [2]; R848 0.05 μg/ml, P<0.001", "result": "significantly enhanced"},
      {"measurement": "effect on QFT-TB response", "setting": "whole blood [2]; R848 0.1 μg/ml, P<0.0001", "result": "significantly enhanced"},
      {"measurement": "patients negative with the current QFT-TB tube who became positive when R848 was added", "setting": "whole blood [2]; both R848 concentrations tested, both patients TB suspects", "result": "Two"},
      {"measurement": "boost in responses in QFT-CMV tubes", "setting": "whole blood [3]; 0.05 μg/ml R848 added", "result": "not as large as that seen for EBV"},
      {"measurement": "boost in responses in QFT-CMV tubes", "setting": "whole blood [3]; 0.1 μg/ml R848 added", "result": "much greater"},
      {"measurement": "IFNγ response to antigen+R848 minus background to R848 alone, Mean", "setting": "whole blood [3]; QFT-CMV tube + 0.05 μg/ml R848, whole blood", "result": 15.96, "unit": "IU/ml"},
      {"measurement": "IFNγ response to antigen+R848 minus background to R848 alone, Mean", "setting": "whole blood [3]; QFT-CMV tube + 0.1 μg/ml R848, whole blood", "result": 79.53, "unit": "IU/ml"},
      {"measurement": "boost in EBV responses", "setting": "whole blood [4]; 0.05 μg/ml R848 added to EBV EBNA1 peptide pool", "result": "significant boost"},
      {"measurement": "IFNγ response to antigen+R848 minus background to R848 alone, Mean", "setting": "whole blood [4]; 0.5 μg/ml EBV EBNA 1 pepMix + 0.01 μg/ml R848, whole blood", "result": 2.857, "unit": "IU/ml"},
      {"measurement": "IFNγ response to antigen+R848 minus background to R848 alone, Mean", "setting": "whole blood [4]; 0.5 μg/ml EBV EBNA 1 pepMix + 0.05 μg/ml R848, whole blood", "result": 18.32, "unit": "IU/ml"},
      {"measurement": "IFNγ response to antigen+R848 minus background to R848 alone, Mean", "setting": "whole blood [4]; 0.5 μg/ml EBV EBNA 1 pepMix + 0.1 μg/ml R848, whole blood", "result": 29.57, "unit": "IU/ml"},
      {"measurement": "responses to the antigen-R848 combined stimuli versus sum of separate responses", "setting": "whole blood [4]; EBV and CMV antigens, whole blood", "result": "greater than that seen by adding together the responses to the antigen and R848 alone individually"}
    ]}
  ]
}
